# Results taken from patent US5153352A, “Process for preparation of intermediates of carbocyclic nucleoside analogs” (priority 1990, dated 1992).
# Experiments:
# HSV-1(123) = test: plaque reduction, HSV-1(123) in Vero cells; type: cell-based, Herpes simplex virus type 1; details: Human alphaherpesvirus 1, plaque reduction 50%, read-out: MIC50
# Description: After the adsorption period, the infected cell monolayers were treated in duplicate with serial dilutions of the test compound. Duplicate cell controls containing medium alone and virus controls containing medium and virus were run simultaneously with the test compound. […] Plaques visible to the unaided eye were counted and the mean number of plaques in the duplicate wells for each compound concentration tested and for the untreated, virus infected controls were determined.
# [1] = system: Human Immunodificiency Virus (HIV-1); test: inhibition of HIV-1 replication in human PBMC (RT activity); type: cell-based; details: Human immunodeficiency virus 1; HIV-1, PBMC, median-effect method
# Description: Human peripheral blood mononuclear cells (PBMC) from healthy HIV-1 seronegative and hepatitis B virus seroneqative donors were isolated by Ficoll-Hypague discontinuous gradient centrifugation at 1,000×g for 30 minutes, washed twice in phosphate buffered saline (pH 7.2; PBS), and pelleted at 300×g for 10 minutes. Before infection, the cells were stimulated by phytohemagglutinin (PHA) at a concentration of 16.7 ug/ml for three days in RPMI 1640 medium supplemented with 15% heat-inactivated fetal calf serum, 1.5 mM L-glutamine, penicillin (100 U/ml), streptomycin (100 ug/ml) and 4 mM sodium bicarbonate buffer.
# Uninfected PHA stimulated human PBMC were uniformly distributed among 25 cm^2 flasks to give a 5 ml suspension containing about 2×10^6 cells/ml. Suitable dilutions of virus were added to infect the cultures. The mean reverse transcriptase (RT) activity of the inocula was 60,000 dpm RT activity/10^6 cells. […]
# The RT assay was perfromed in 96-well microtiter plates as described by Spira, et al. (J. Clin. Microbiol. 25 97 (1987)). […] Four ml of scintillation fluid (Econofluor, NEN Research Products, Boston, Ma.) were added and the amount of radioactivity in each sample was determined using a Packard Tri Carb liquid scintillation analyzer (model 2,000CA). […]
# [2] = MTT cytotoxicity assay in MRC5 cells; type: cell-based; details: human
# Description: Human diploid embryonic lung (MRC5) cells were grown in 35 mm wells of 6-well tissue culture plates. Subconfluent cell monolayers were rinsed with phosphate buffered saline (PBS) and were exposed to 0.5 ml/well of HCMV (strain AD169) suspension for 1.5 hours at 37° C. The virus suspension was diluted in MEM+2% fetal bovine serum (FBS) to yield a multiplicity of infection (MOI) of approximately 0.1 plaque forming units (PFU)/cell. Following the virus adsorption period, the inocula were removed and infected cell layers were rinsed with PBS. Aliquots (2.0 ml) of each test drug concentration (dissolved in MEM supplemented with 2% FBS) were dispensed into triplicate cell cultures: two virus infected cultures and one uninfected cytotoxicity control culture (exposed to medium without virus for 1.5 hours). Untreated virus infected control cultures and untreated, uninfected cell control cultures were fed with medium alone.
# All cell culture fluids were replaced with fresh drug and medium 48 hours postinfection (p.i.).
# Drug cytotoxicity was determined quantitatively by a method based on the reduction of the tetrazolium salt, 3-(4,5-dimethyl-thiazol-2-yl)-2,5-diphenyl tetrazolium bromide (MTT) by mitochondrial enzymes of viable host cells to MTT formazan (T. Mosmann, 1983). Drug cytotoxicity controls and cell controls were treated with MTT (dissolved in culture medium) followed by 20% SDS (in 0.02 N HCl) to dissolve the crystals of MTT formazan. The blue color of the MTT formazan was measured spectrophotometrically at 570 nm. Drug cytotoxicity was determined by comparing the absorbance (O.D.) of each drug cytotoxicity control with the mean O.D. of the cell control cultures and expressed as percent of control.
# A549: Lung carcinoma = test: cytotoxic activity against cultured tumor cells, A549; type: cell-based; details: Homo sapiens, 72 h; A549, 3 days, MTT
# [3] = drug cytotoxicity in Vero cells (CPE-inhibition assay); details: monkey, vero cells
# Vero cells = test: as above; details: Vero
SMILES,EC50 (HSV-1(123)),EC50 [1],viability ([2]; 1.0 ug/ml),viability ([2]; 3.2 ug/ml),viability ([2]; 10 ug/ml),viability ([2]; 32 ug/ml),IC50 (A549: Lung carcinoma),MCC [3],"MCC ([3]; MTC (minimum drug concentration causing any cytotoxicity), Vero, HSV-2 (MS) experiment)",MTC (minimum drug concentration causing any cytotoxicity) (Vero cells; HSV-2 (BW9787) TK- experiment),MTC (minimum drug concentration causing any cytotoxicity) (Vero cells; HSV-2 (MS) experiment)
"Nc1nc2c(ncn2C2CC(CO)C2CO)c(=O)[nH]1 (stereo not shown) [Example 1I, 9-(2',3'-Bis(hydroxymethyl)cyclobutyl)guanine]",1 µg/mL,980 nM,100%,100%,100%,100%,94.6 µg/mL,100 µg/mL,320 µg/mL,100 µg/mL,320 µg/mL
"Nc1ncnc2c1ncn2C1CC(CO)C1CO (stereo not shown) [Example 4C, 9-(2',3'-Bis(hydroxymethyl)cyclobutyl)adenine]",,960 nM,,95%,90%,67%,49.1 µg/mL,,,,
